{"source": "patent US10973840B2", "about": "“Methods of sensitizing tumor cells to weak base chemotherapeutic drugs” (SOCPRA SCIENCES SANTÉ ET HUMAINES S.E.C., priority 2017, dated 2021)", "format_in_all_cases": "cell-based, human", "key": {"[1]": {"test_system": "HT-1080 cells", "test": "Intracellular localization of Dox by confocal live-cell imaging, HT-1080", "conditions": "for effect on hypoxia-induced Dox sequestration within endosomes: HT-1080, 1% O2, Cq 10 μM, Baf 100 nM", "method": "(§1) Cells were cultured in 25 mm-diameter glass coverslips (Thermo Fisher Scientific) and incubated under various conditions (as indicated in the FIG. legends). Cells were then incubated for 2 h in a medium containing Dox (2 μM). After the incubation period, cells were washed to remove excess Dox and left in drug-free media for 10 min. […] Coverslips were mounted on glass slides and placed on a 37° C. warmed stage of an Olympus Fluoview™ FV1000 (Olympus, Tokyo, Japan) confocal laser scanning microscope. Dox was excited with a green helium neon laser (543 nm) and emitted fluorescence intensity was measured. Images were acquired on the same day, typically from 10-20 cells of similar size from each experimental condition, using identical instrument settings."}, "[2]": {"test_system": "MDA-MB-231 cells", "test": "Intracellular localization of Dox by confocal live-cell imaging, MDA-MB-231", "conditions": "MDA-MB-231, 1% O2; Cq 10 μM, Baf 100 nM", "method": "as §1"}, "[3]": {"test_system": "HT-1080 cells", "test": "Intracellular pH measurement (HPTS/SNARF-1) by confocal microscopy, HT-1080", "conditions": "HT-1080, 1% O2, 4 h; for effect on hypoxia-induced intravesicular acidification: Baf 100 nM, Cq 10 μM", "method": "(§2) The pH sensing ratiometric dyes SNARF-1 and HPTS (Life Technologies) were used simultaneously for pH measurement of both cytoplasmic (C-SNARF-1) and endosomal/lysosomal (HPTS) compartments as previously described^30. Briefly, cells were cultured in 35 mm petri dishes (BD Biosciences) and used at 50% confluence. For endocytic labeling, cells were incubated overnight with HPTS (1 mM), washed, followed by a 20-min incubation with SNARF-1 (5 μM) to label the cytoplasmic compartment. Living cells were analyzed using an Olympus Fluoview™ FV1000 confocal microscope. Fluorescence emissions of both pH-sensing probes were recorded and subsequently analyzed as described^30."}, "[4]": {"test_system": "MDA-MB-231 cells", "test": "Intracellular pH measurement (HPTS/SNARF-1) by confocal microscopy, MDA-MB-231", "conditions": "MDA-MB-231, 1% O2, 4 h; for effect on hypoxia-induced intravesicular acidification: Baf 100 nM, Cq 10 μM", "method": "as §2"}, "[5]": {"test_system": "MDA-MB-231 breast cancer cells", "test": "MTT cell viability assay, MDA-MB-231", "conditions": "for pIC50: Homo sapiens, MDA-MB-231, 72 h; for Fold change: MDA-MB-231, IC50 at 1% O2 to IC50 at 21% O2", "method": "(§3) Cells (5×10^3) were cultured in 96-well plates and pre-incubated under 21% O2 or 1% O2 for 4 h following the addition of drugs for 72 h. Cell viability was measured using the 3-(4,5-dimethylthiazol-2-yl)-2,5-diphenyltetrazolium bromide (MTT) dye (Life Technologies) according to manufacturer's instructions. Because hypoxic conditions may affect the reduction of MTT to formazan, incubation of all cell cultures with MTT were performed under normoxic conditions. Each experiment was performed in triplicate and at least three independent experiments were performed. Log-scale dose-response data were plotted on a graph and a three-parameter non-linear regression was applied to determine IC50 values. For calculation of the IC50s, both normoxic and hypoxic drug-treated samples were normalized with their untreated counterpart.\n(§4) To assess the role of pH in hypoxia-induced resistance to anthracyclines, the human breast cancer MDA-MB-231 and fibrosarcoma HT-1080 cell lines were incubated in the presence or absence of the commonly used anthracycline drugs, doxorubicin (Dox), daunorubicin (Dau) and the anthracycline analog drug, mitoxantrone (Mtx), under hypoxic (1% O2) or normoxic (21% O2) conditions for 72 hours. Cell viability was then assessed using the MTT assay. The impact of extracellular pH on Dox uptake by HT-1080 was also assessed."}, "[6]": {"test_system": "HT-1080 fibrosarcoma cells", "test": "MTT cell viability assay, HT-1080", "conditions": "for Fold change: HT-1080, IC50 at 1% O2 to IC50 at 21% O2; for increase in resistance toward the drug by hypoxia: HT-1080 cells (so in the source), 1% O2 vs 21% O2; for pIC50: Homo sapiens, HT-1080, 72 h", "method": "as §3, §4"}, "[7]": {"test_system": "NHE6", "test": "NHE6 localization (cell-surface biotinylation, EEA1 immunofluorescence) in HT-1080", "method": "Biotinylation steps were performed at […] Cells were grown on circular 15-mm diameter glass coverslips (Thermo Fisher Scientific) and incubated at 21% or 1% O2. Cells were then washed with PBS containing 1 mM CaCl2 and 0.5 mM MgCl2 (PBSCM) and incubated for 5 min with 0.3 mg/ml of EZ-Link Sulfo-NHS-SS-Biotin (Pierce) in PBSCM. Unreacted biotin was quenched using 100 mM glycine. Cells were fixed for 10 min at room temperature using 1% PFA in PBS. Prior to staining, cells were blocked with 5% of BSA for 1 h at room temperature. Biotinylated cells were stained with 5 μg/ml Streptavidin Texas Red (Invitrogen) for 1 h at 4° C. Coverslips were washed and mounted on a microscope slide using Vectashield mounting media (Vector labs).\nCultured cells were fixed with 1% PFA for 10 min at room temperature, permeabilized with saponin (0.05% in PBS) for 20 min, and blocked with 2% BSA in PBS for 30 min. Cells were then incubated with the appropriate primary and secondary antibodies as follows: anti-EEA1 (1/500), anti-Rab7 (1/500) and fluorophore-conjugated secondary antibodies (1/1000). Images were recorded using an Olympus Fluoview™ FV1000 confocal microscope using a 63× oil immersion objective."}, "[8]": {"test_system": "NHE6-RACK1 interaction", "test": "Co-immunoprecipitation of NHE6 with RACK1 in HT-1080", "conditions": "HT-1080, PDBu 100 nM", "method": "Cells were lysed on ice in NP-40-containing buffer (50 mM Tris-HCl pH 8.0, 150 mM NaCl, 1% NP-40, 5 mM EDTA, phosphatase and protease inhibitors). Cell lysates were centrifuged at 13,000 rpm at 4° C. and protein concentration determined using the BCA protein assay (Thermo Fisher Scientific). After a pre-clearing step with protein A/G-agarose beads (GE Healthcare), protein complexes were immunoprecipitated overnight at 4° C. Samples were incubated in SDS-loading buffer for 30 minutes at room temperature to avoid transmembrane protein aggregates upon heating in a boiling water bath. Proteins were separated by SDS-PAGE electrophoresis, transferred to a PVDF membrane and immunoblotting was performed as described, using anti-NHE6 (1:1000), anti-NHE9 (1:1000) anti-RACK1 (1:2000), anti-tubulin (1:5000), anti-actin (1:5000) anti-HA (1:1000), anti-PKC (1:200), anti-phospho PKC substrate (1:1000), anti-LAMP2 (1:200), anti-P-glycoprotein (1:200) and HRP-conjugated secondary antibodies (1/10 000)^66."}}, "note": "pIC50: −log10 of the molar value. Read-outs that look alike come from different tables or passages of the source."}
{"smiles": "CO/C1=C\\C(C)=C\\[C@@H](C)[C@@H](O)[C@@H](C)C/C(C)=C/C=C/[C@H](OC)[C@@H]([C@@H](C)[C@@H](O)[C@H](C)[C@@]2(O)C[C@@H](O)[C@H](C)[C@@H](C(C)C)O2)OC1=O", "note": "[Baf, bafilomycin A1]", "values": [{"measurement": "effect on hypoxia-induced Dox sequestration within endosomes", "setting": "[1]", "result": "abolished hypoxia-induced Dox sequestration within endosomes"}, {"measurement": "effect on hypoxia-induced Dox sequestration within endosomes", "setting": "[2]", "result": "abolished hypoxia-induced Dox sequestration within endosomes"}, {"measurement": "effect on hypoxia-induced intravesicular acidification", "setting": "[3]", "result": "prevented"}, {"measurement": "effect on hypoxia-induced intravesicular acidification", "setting": "[4]", "result": "prevented"}]}
{"smiles": "CCN(CC)CCCC(C)Nc1ccnc2cc(Cl)ccc12", "note": "(centres unmarked) [Cq, chloroquine]", "values": [{"measurement": "effect on hypoxia-induced Dox sequestration within endosomes", "setting": "[1]", "result": "abolished hypoxia-induced Dox sequestration within endosomes"}, {"measurement": "effect on hypoxia-induced Dox sequestration within endosomes", "setting": "[2]", "result": "abolished hypoxia-induced Dox sequestration within endosomes"}, {"measurement": "effect on hypoxia-induced intravesicular acidification", "setting": "[3]", "result": "prevented"}, {"measurement": "effect on hypoxia-induced intravesicular acidification", "setting": "[4]", "result": "prevented"}]}
{"smiles": "COc1cccc2c1C(=O)c1c(O)c3c(c(O)c1C2=O)C[C@@](O)(C(C)=O)C[C@@H]3O[C@H]1C[C@H](N)[C@H](O)[C@H](C)O1", "note": "[Dau, daunorubicin]", "values": [{"measurement": "pIC50", "setting": "[5]; read-out: IC50 of anthracyclines, MDA-MB-231, 1% O2, 72 h", "result": 6.04}, {"measurement": "pIC50", "setting": "[5]; read-out: IC50 of anthracyclines, MDA-MB-231, 21% O2, 72 h", "result": 6.70}, {"measurement": "Fold change", "setting": "[5]", "result": 4.7, "unit": "fold"}, {"measurement": "Fold change", "setting": "[6]", "result": 8.1, "unit": "fold"}, {"measurement": "increase in resistance toward the drug by hypoxia", "setting": "[6]", "result": 4.7, "unit": "fold"}, {"measurement": "pIC50", "setting": "[6]; read-out: IC50 of anthracyclines, HT-1080, 1% O2, 72 h", "result": 6.09}, {"measurement": "pIC50", "setting": "[6]; read-out: IC50 of anthracyclines, HT-1080, 21% O2, 72 h", "result": 6.99}]}
{"smiles": "CCN(c1nc(N)c(C(=O)NC(=N)N)nc1Cl)C(C)C", "note": "[EIPA]", "values": [{"measurement": "effect on hypoxia-induced increase in cytosolic pH", "setting": "[3]; EIPA 25 μM", "result": "prevented"}, {"measurement": "effect on hypoxia-induced increase in cytosolic pH", "setting": "[4]; EIPA 25 μM", "result": "prevented"}]}
{"smiles": "CN(C)CCCn1cc(C2=C(c3c[nH]c4ccccc34)C(=O)NC2=O)c2ccccc21", "note": "[GF109203X]", "values": [{"measurement": "Dox within the nucleus", "setting": "[1]; HT-1080, 1% O2, PKC inhibition (GF-109203x 200 nM)", "result": "promoted the accumulation of Dox in the nuclear compartment"}, {"measurement": "endosomal/lysosomal pH under hypoxic conditions", "setting": "[3]; PKC inhibition (GF-109203x 200 nM)", "result": "partial recovery of normal pH values"}, {"measurement": "hypoxia-induced NHE6 relocalization", "setting": "[7]; HT-1080, 1% O2, 4 h, GF-109203x 200 nM", "result": "blocked"}]}
{"smiles": "O=C1c2c(O)ccc(O)c2C(=O)c2c(NCCNCCO)ccc(NCCNCCO)c21", "note": "[Mtx, mitoxantrone]", "values": [{"measurement": "pIC50", "setting": "[5]; MDA-MB-231, 1% O2, 72 h, read-out: IC50 of anthracyclines", "result": 6.12}, {"measurement": "pIC50", "setting": "[5]; MDA-MB-231, 21% O2, 72 h, read-out: IC50 of anthracyclines", "result": 6.82}, {"measurement": "Fold change", "setting": "[5]", "result": 5.0, "unit": "fold"}, {"measurement": "Fold change", "setting": "[6]", "result": 4.9, "unit": "fold"}, {"measurement": "increase in resistance toward the drug by hypoxia", "setting": "[6]", "result": 5.0, "unit": "fold"}, {"measurement": "pIC50", "setting": "[6]; HT-1080, 1% O2, 72 h, read-out: IC50 of anthracyclines", "result": 6.35}, {"measurement": "pIC50", "setting": "[6]; HT-1080, 21% O2, 72 h, read-out: IC50 of anthracyclines", "result": 7.03}]}
{"smiles": "CCCC(=O)O[C@@H]1[C@@H](C)[C@@]2(O)[C@@H](C=C(CO)C[C@]3(O)C(=O)C(C)=C[C@@H]23)[C@@H]2C(C)(C)[C@]12OC(=O)CCC", "note": "[PDBu, phorbol-12,13-dibutyrate]", "values": [{"measurement": "relocalization of NHE6 from endosomes to the plasma membrane", "setting": "[7]; HT-1080, normoxia, PDBu 100 nM", "result": "promoted"}, {"measurement": "association of NHE6 with RACK1", "setting": "[8]", "result": "promoted"}]}
